Entries after “also recorded” stand apart in the source; their conditions may differ.
Legend:
norepinephrine = experiment: Hypoglycemic clamp: plasma norepinephrine levels; type: in vivo, human; conditions: for Norepinephrine, change from baseline, Mean (SD) / Norepinephrine, change from baseline, Median (Min, Max) / Norepinephrine, observed value, Mean (SD) / Norepinephrine, observed value, Median (Min, Max): C-peptide undetectable, n=5
Experimental: (§1) In order to evaluate the counterregulatory hormone response to hypoglycemia, a hypoglycemic clamp will be performed. The Hypoglycemic Clamp must be performed according to the instructions in the Operations Manual. (Appendix 3)
(§2) The patient should: • Come to the study site following an overnight fast (>10 hours), i.e. the patient may not eat but is permitted to drink water • Not have taken the Remygen and, if applicable, Alprazolam dose in the morning • Not take short acting/direct acting insulin within 6 hours before the investigation. • The patient is allowed to take base-insulin day/night before, but not in the morning before the investigation.
(§3) Patients with CSII (insulin pump) must continue with their basal dose insulin, but not add bolus dose during the last 6 hours before the investigation.
(§4) If a patient has a blood sugar level <4 mmol/L in the morning of the scheduled visit, the patient is allowed to take dextrose tablets and then come to the study site. The patient is allowed to perform the investigation if the blood sugar level is >4 mmol/L.
(§5) In the dose-escalation part of the study, the patient will take study drug 30 min prior to start of the hypoglycemic clamp. In the main study, the study drug will instead be taken after finalization of the hypoglycemic clamp. Baseline blood samples will be obtained for glucose, glucagon, epinephrine, norepinephrine, growth hormone and cortisol. The clamp will then be initiated by an intravenous insulin infusion at a rate of 2 mU×kg^−1×min^−1. Glucose 100 mg/ml will then be administered in variable infusion rates to clamp the blood glucose concentration at 5.5 mmol/land then at 2.5 mmol/land kept stable for 30 min. Blood glucose will be evaluated repeatedly in order to find the optimal glucose infusion rate. Blood sampling to determined levels of counterregulatory hormones as described above will be performed at each of these target levels when a stable glucose concentration has been reached. The insulin infusion will thereafter be terminated and the patient is allowed to eat and will be observed until normoglycemia is achieved. If necessary, additional glucose administration will be given to allow blood glucose concentrations to normalize.
Only patients with c-peptide levels that were undetectable (in a standard assay, i.e. <0.01 nmol/L) are included (5 of 6) in the data below.
Plasma levels of glucagon, cortisol, epinephrine, growth hormone and glucose were measured at baseline (increased glucose in T1D subjects). Plasma glucose was first lowered to normoglycemic levels (5.5 mmol/L) and hormone levels monitored, and then to hypoglycemic levels (2.5 mmol/L) and hormone levels monitored. Difference was calculated as a measurement of the response to hypoglycemia.

growth hormone = experiment: Hypoglycemic clamp: plasma growth hormone levels; type: in vivo, human; conditions: for Growth hormone levels, change from baseline, Mean / Growth hormone levels, change from baseline, Median / Growth hormone levels, observed value, Mean / Growth hormone levels, observed value, Median: C-peptide undetectable, n=5
Experimental: as §1, §2, §3, §4, §5
Plasma glucose was first lowered to normoglycemic levels (5.5 mmol/L) and hormone levels monitored, and then to hypoglycemic levels (2.5 mmol/L) and hormone levels monitored. Difference was calculated as a measurement of the response to hypoglycemia.

[1] = Visit 5, 200 mg GABA per day, event 2.5 mmol/L
[2] = Visit 5, 200 mg GABA per day, event 5.5 mmol/L
[3] = Visit 5, 200 mg GABA per day, event Baseline
[4] = Visit 5, 200 mg GABA per day, event Diff 2.5-5.5 mmol/L
[5] = Visit 7, 600 mg GABA per day, event 2.5 mmol/L
[6] = Visit 7, 600 mg GABA per day, event 5.5 mmol/L
[7] = Visit 7, 600 mg GABA per day, event Baseline
[8] = Visit 7, 600 mg GABA per day, event Diff 2.5-5.5 mmol/L
[9] = Visit 9, 1200 mg GABA per day, event 2.5 mmol/L
[10] = Visit 9, 1200 mg GABA per day, event 5.5 mmol/L
[11] = Visit 9, 1200 mg GABA per day, event Baseline
[12] = Visit 9, 1200 mg GABA per day, event Diff 2.5-5.5 mmol/L

NCCCC(=O)O [GABA, Gamma-amino butyric acid]
Norepinephrine, change from baseline, Mean (SD) (norepinephrine; [1]): −0.44 (0.61) nmol(L | Norepinephrine, change from baseline, Median (Min, Max) (norepinephrine; [1]): −0.30 (−1.3, 0.2) nmol(L | Norepinephrine, observed value, Mean (SD) (norepinephrine; [1]): 1.82 (0.41) nmol(L | Norepinephrine, observed value, Median (Min, Max) (norepinephrine; [1]): 1.90 (1.4, 2.3) nmol(L | Norepinephrine, change from baseline, Mean (SD) (norepinephrine; [2]): −0.16 (0.52) nmol(L | Norepinephrine, change from baseline, Median (Min, Max) (norepinephrine; [2]): 0.00 (−0.9, 0.5) nmol(L | Norepinephrine, observed value, Mean (SD) (norepinephrine; [2]): 1.78 (0.52) nmol(L | Norepinephrine, observed value, Median (Min, Max) (norepinephrine; [2]): 1.60 (1.2, 2.5) nmol(L | Norepinephrine, change from baseline, Mean (SD) (norepinephrine; [3]): −0.34 (0.53) nmol(L | Norepinephrine, change from baseline, Median (Min, Max) (norepinephrine; [3]): −0.50 (−0.9, 0.5) nmol(L | Norepinephrine, observed value, Mean (SD) (norepinephrine; [3]): 1.46 (0.35) nmol(L | Norepinephrine, observed value, Median (Min, Max) (norepinephrine; [3]): 1.50 (1.1, 2.0) nmol(L | Norepinephrine, change from baseline, Mean (SD) (norepinephrine; [4]): −0.28 (0.59) nmol(L | Norepinephrine, change from baseline, Median (Min, Max) (norepinephrine; [4]): 0.00 (−1.3, 0.1) nmol(L | Norepinephrine, observed value, Mean (SD) (norepinephrine; [4]): 0.04 (0.29) nmol(L | Norepinephrine, observed value, Median (Min, Max) (norepinephrine; [4]): 0.20 (−0.4, 0.3) nmol(L | Norepinephrine, change from baseline, Mean (SD) (norepinephrine; [5]): −0.56 (0.73) nmol(L | Norepinephrine, change from baseline, Median (Min, Max) (norepinephrine; [5]): −0.50 (−1.6, 0.3) nmol(L | Norepinephrine, observed value, Mean (SD) (norepinephrine; [5]): 1.70 (0.27) nmol(L | Norepinephrine, observed value, Median (Min, Max) (norepinephrine; [5]): 1.70 (1.4, 2.1) nmol(L | Norepinephrine, change from baseline, Mean (SD) (norepinephrine; [6]): −0.10 (0.31) nmol(L | Norepinephrine, change from baseline, Median (Min, Max) (norepinephrine; [6]): −0.10 (−0.4, 0.3) nmol(L | Norepinephrine, observed value, Mean (SD) (norepinephrine; [6]): 1.84 (0.34) nmol(L | Norepinephrine, observed value, Median (Min, Max) (norepinephrine; [6]): 2.00 (1.3, 2.1) nmol(L | Norepinephrine, change from baseline, Mean (SD) (norepinephrine; [7]): −0.32 (0.49) nmol(L | Norepinephrine, change from baseline, Median (Min, Max) (norepinephrine; [7]): −0.30 (−0.9, 0.4) nmol(L | Norepinephrine, observed value, Mean (SD) (norepinephrine; [7]): 1.48 (0.70) nmol(L | Norepinephrine, observed value, Median (Min, Max) (norepinephrine; [7]): 1.20 (1.0, 2.7) nmol(L | Norepinephrine, change from baseline, Mean (SD) (norepinephrine; [8]): −0.46 (0.50) nmol(L | Norepinephrine, change from baseline, Median (Min, Max) (norepinephrine; [8]): −0.50 (−1.2, 0.0) nmol(L | Norepinephrine, observed value, Mean (SD) (norepinephrine; [8]): −0.14 (0.27) nmol(L | Norepinephrine, observed value, Median (Min, Max) (norepinephrine; [8]): −0.30 (−0.4, 0.2) nmol(L | Norepinephrine, change from baseline, Mean (SD) (norepinephrine; [9]): −0.66 (0.68) nmol(L | Norepinephrine, change from baseline, Median (Min, Max) (norepinephrine; [9]): −0.70 (−1.6, 0.0) nmol(L | Norepinephrine, observed value, Mean (SD) (norepinephrine; [9]): 1.60 (0.42) nmol(L | Norepinephrine, observed value, Median (Min, Max) (norepinephrine; [9]): 1.60 (1.2, 2.2) nmol(L | Norepinephrine, change from baseline, Mean (SD) (norepinephrine; [10]): −0.46 (0.84) nmol(L | Norepinephrine, change from baseline, Median (Min, Max) (norepinephrine; [10]): −0.20 (−1.7, 0.4) nmol(L | Norepinephrine, observed value, Mean (SD) (norepinephrine; [10]): 1.48 (0.50) nmol(L | Norepinephrine, observed value, Median (Min, Max) (norepinephrine; [10]): 1.40 (0.8, 2.2) nmol(L | Norepinephrine, change from baseline, Mean (SD) (norepinephrine; [11]): −0.58 (0.59) nmol(L | Norepinephrine, change from baseline, Median (Min, Max) (norepinephrine; [11]): −0.50 (−1.3, 0.2) nmol(L | Norepinephrine, observed value, Mean (SD) (norepinephrine; [11]): 1.22 (0.35) nmol(L | Norepinephrine, observed value, Median (Min, Max) (norepinephrine; [11]): 1.00 (0.9, 1.6) nmol(L | Norepinephrine, change from baseline, Mean (SD) (norepinephrine; [12]): −0.20 (0.55) nmol(L | Norepinephrine, change from baseline, Median (Min, Max) (norepinephrine; [12]): −0.40 (−0.7, 0.7) nmol(L | Norepinephrine, observed value, Mean (SD) (norepinephrine; [12]): 0.12 (0.41) nmol(L | Norepinephrine, observed value, Median (Min, Max) (norepinephrine; [12]): 0.00 (−0.2, 0.8) nmol(L | Normoglycemic levels of norepinephrine, effect of GABA treatment (norepinephrine; clamped to 5.5 mmol/L): decrease | Baseline (no clamp) norepinephrine levels, effect of GABA treatment (norepinephrine; dose escalation part, oral GABA, type 1 diabetes patients with undetectable c-peptide): downregulated; also recorded: decrease | Growth hormone levels, change from baseline, Mean (growth hormone; [1]): 4.560 µg/L | Growth hormone levels, change from baseline, Median (growth hormone; [1]): 3.400 µg/L | Growth hormone levels, observed value, Mean (growth hormone; [1]): 11.632 µg/L | Growth hormone levels, observed value, Median (growth hormone; [1]): 4.000 µg/L | Growth hormone levels, change from baseline, Mean (growth hormone; [2]): -0.802 µg/L | Growth hormone levels, change from baseline, Median (growth hormone; [2]): 0.000 µg/L | Growth hormone levels, observed value, Mean (growth hormone; [2]): 2.110 µg/L | Growth hormone levels, observed value, Median (growth hormone; [2]): 0.070 µg/L | Growth hormone levels, change from baseline, Mean (growth hormone; [3]): 0.475 µg/L | Growth hormone levels, change from baseline, Median (growth hormone; [3]): 0.035 µg/L | Growth hormone levels, observed value, Mean (growth hormone; [3]): 0.630 µg/L | Growth hormone levels, observed value, Median (growth hormone; [3]): 0.080 µg/L | Growth hormone levels, change from baseline, Mean (growth hormone; [4]): 5.362 µg/L | Growth hormone levels, change from baseline, Median (growth hormone; [4]): 4.000 µg/L | Growth hormone levels, observed value, Mean (growth hormone; [4]): 9.522 µg/L | Growth hormone levels, observed value, Median (growth hormone; [4]): 3.440 µg/L | Growth hormone levels, change from baseline, Mean (growth hormone; [5]): 10.068 µg/L | Growth hormone levels, change from baseline, Median (growth hormone; [5]): 9.000 µg/L | Growth hormone levels, observed value, Mean (growth hormone; [5]): 17.140 µg/L | Growth hormone levels, observed value, Median (growth hormone; [5]): 11.700 µg/L | Growth hormone levels, change from baseline, Mean (growth hormone; [6]): -1.812 µg/L | Growth hormone levels, change from baseline, Median (growth hormone; [6]): -0.340 µg/L | Growth hormone levels, observed value, Mean (growth hormone; [6]): 1.100 µg/L | Growth hormone levels, observed value, Median (growth hormone; [6]): 0.160 µg/L | Growth hormone levels, change from baseline, Mean (growth hormone; [7]): 2.098 µg/L | Growth hormone levels, change from baseline, Median (growth hormone; [7]): 0.090 µg/L | Growth hormone levels, observed value, Mean (growth hormone; [7]): 2.253 µg/L | Growth hormone levels, observed value, Median (growth hormone; [7]): 0.140 µg/L | Growth hormone levels, change from baseline, Mean (growth hormone; [8]): 11.880 µg/L | Growth hormone levels, observed value, Mean (growth hormone; [8]): 16.040 µg/L | Growth hormone levels, observed value, Median (growth hormone; [8]): 10.820 µg/L | Growth hormone levels, change from baseline, Mean (growth hormone; [9]): 7.388 µg/L | Growth hormone levels, change from baseline, Median (growth hormone; [9]): 7.900 µg/L | Growth hormone levels, observed value, Mean (growth hormone; [9]): 14.460 µg/L | Growth hormone levels, observed value, Median (growth hormone; [9]): 14.000 µg/L | Growth hormone levels, change from baseline, Mean (growth hormone; [10]): -1.468 µg/L | Growth hormone levels, change from baseline, Median (growth hormone; [10]): -0.210 µg/L | Growth hormone levels, observed value, Mean (growth hormone; [10]): 1.444 µg/L | Growth hormone levels, observed value, Median (growth hormone; [10]): 0.170 µg/L | Growth hormone levels, change from baseline, Median (growth hormone; [11]): 0.100 µg/L | Growth hormone levels, observed value, Mean (growth hormone; [11]): 0.461 µg/L | Growth hormone levels, observed value, Median (growth hormone; [11]): 0.170 µg/L | Growth hormone levels, change from baseline, Mean (growth hormone; [12]): 8.856 µg/L | Growth hormone levels, change from baseline, Median (growth hormone; [12]): 6.900 µg/L | Growth hormone levels, observed value, Mean (growth hormone; [12]): 13.016 µg/L | Growth hormone levels, observed value, Median (growth hormone; [12]): 8.600 µg/L | Counter regulatory response of Growth hormone, effect of GABA treatment (growth hormone; change in levels when clamping to 2.5 mmol/L from 5.5 mmol/L): increased | Normoglycemic levels of Growth hormone, effect of GABA treatment (growth hormone; clamped to 5.5 mmol/L): decrease

Source: patent publication US20230210797A1, “PREVENTING AND TREATING HYPOGLYCEMIA” (DIAMYD MEDICAL AB, priority 2019, published 2023)
